Laboratory results: patent US11434237B2, “Selective ligands for tau aggregates” (KARIN & STEN MORTSTEDT CBD SOLUTIONS AB, priority 2017, dated 2022)

Key:
[1] = target: T1, Aβ aggregates (Homo sapiens, UniProt P05067); test: Compound and antibody 4G8 double staining of AD brain tissue sections; format: binding; conditions: for Overlap between Fluorescence from tested compound and fluorescence from 4G8 observed / Fluorescence from tested compound observed: 100 nM compound, human AD brain tissue sections; for Overlap between Fluorescence from tested compound and fluorescence from 4G8 observed: Aβ antibody 4G8; for Fluorescence from tested compound observed: double staining with Aβ antibody 4G8; for Fluorescence from 4G8 observed: signal of Aβ antibody 4G8 in the section stained with 100 nM of the compound
T1 construct: compound and antibody double staining of Aβ or tau aggregates; from tissue; host or cells: human AD brain tissue sections (20 μm)
Description: (§1) To achieve compound and antibody double staining of Aβ or tau aggregates, tissue sections (20 μm) from human AD brain were fixed in 70% EtOH at 4° C. for 3 min, rehydrated in distilled water and then incubated in PBS for 30 min. Sections were blocked and permeabilized in PBS with 5% normal goat serum and 0.1% triton X-100 (blocking buffer) for 1 h at room temperature (RT). Antibody 4G8 (Biolegend, San Diego, Calif., USA) reactive to Aβ, and AT100 (Thermo Fisher Scientific, Waltham, Mass., USA) directed against tau phosphorylated at […] (3) were diluted 1:500 and 1:1000, respectively, in blocking buffer and added to the sections. After 16 h incubation at 4° C. unbound antibody was removed by washing in PBS with 0.1% triton X-100 (PBS-T) 3×10 min. To visualize antibody binding to Aβ or tau aggregates sections were incubated with goat anti-mouse secondary antibody labelled with Alexa 647 (Thermo Fisher Scientific). The antibody was diluted 1:200 in blocking buffer and after 1 h incubation at RT sections were washed in PBS 3×10 min. Example Compound 3a, Example Compound 3b, Example Compound 3c, Example Compound 3d, Example Compound 3e, Example Compound 3f, Example Compound 3g, Example Compound 3h, Example Compound 3i, Example Compound 3j, Example Compound 3k, Example Compound 3m, Example Compound 3n, Example Compound 3o, Example Compound 3p, Example Compound 3q, Example Compound 3r, Example Compound 3s, Example Compound 3t, Example Compound 3u, Example Compound 8a, Comparative Example 1, Comparative Example 2, Comparative Example 3 and Comparative Example 4 were dissolved in DMSO to a concentration of 1.5 mM and then further diluted in PBS to a final concentration of 100 nM compound prior to staining. The tissue sections were then stained for 30 min at RT with these freshly prepared solutions containing 100 nM of the respective compound in PBS. After three washes in PBS the sections were mounted in Dako mounting medium for fluorescence (Dako Cytomation, Glostrup, Denmark) and allowed to dry overnight before analysis. Fluorescence images were collected using an inverted LSM 780 confocal microscope (Carl Zeiss, Oberkochen, Germany) with the following excitation/emission wavelengths optimized for each compound: 458/484-600 (Comparative Example 1, Comparative Example 3), 561/569-648 (Example Compound 3a, Example Compound 3b, Example Compound 3c, Example Compound 3d, Example Compound 3e, Example Compound 3f, Example Compound 3g, Example Compound 3h, Example Compound 3i, Example Compound 3j, Example Compound 3k, Example Compound 3m, Example Compound 3n, Example Compound 3o, Example Compound 3p, Example Compound 3q, Example Compound 3r, Example Compound 3s, Example Compound 3t, Example Compound 3u, Example Compound 8a, Comparative Example 2 and Comparative Example 4) and 633/638-755 (Alexa 647). To visualize autofluorescent lipofuscin excitation/emission wavelengths 405/410-480 or 405/410-514 were used.

[2] = system: Aβ and tau deposits; test: Co-staining of AD brain sections with q-FTAA-CN and Example Compound 3a; format: binding, human; conditions: simultaneous staining, 100 nM q-FTAA-CN and 100 nM Example Compound 3a
Description: Frozen brain sections (20 μm) were fixed in 96% EtOH, rehydrated in 50% EtOH and de-ionized water and then incubated in phosphate buffered saline (PBS, 10 mM phosphate, 140 mM NaCl, 2.7 mM KCl, pH 7.4) for 10 min. Solutions containing 100 nM PBB3 and 100 nM Example Compound 3b or 100 nM q-FTAA-CN and 100 nM Example Compound 3a in PBS were added to the sections. After 30 min, the sections were washed with PBS and mounted with Dako fluorescent mounting medium (Dako Cytomation, Glostrup, Denmark). The mounting medium was allowed to solidify over night before collecting emission spectra of the compounds bound to misfolded A ? and tau using an inverted LSM 780 confocal microscope (Carl Zeiss, Oberkochen, Germany) with excitation wavelengths at 405 nm (PBB3 and q-FTAA-CN) and 561 nm (Example Compound 3a and Example Compound 3b).

[3] = target: T2, tau aggregates (Homo sapiens, UniProt P10636); test: Compound and antibody AT100 double staining of AD brain tissue sections; format: binding; conditions: for Labelling of immune-positive NFTs and dystrophic neurites / Fluorescence from tested compound observed / Overlap between Fluorescence from tested compound and fluorescence from AT-100 observed: 100 nM compound; for Labelling of immune-positive NFTs and dystrophic neurites: AT100 co-staining, AD brain sections; for Fluorescence from tested compound observed / Overlap between Fluorescence from tested compound and fluorescence from AT-100 observed: human AD brain tissue sections; for Fluorescence from tested compound observed: double staining with tau antibody AT-100; for Overlap between Fluorescence from tested compound and fluorescence from AT-100 observed: tau antibody AT-100; for Fluorescence from AT-100 observed: signal of tau antibody AT-100 in the section stained with 100 nM of the compound
T2 construct: tissue sections (20 μm) from human AD brain; from tissue; host or cells: human AD brain tissue sections (20 μm)
Description: as §1

T2 sequence (P10636 1-441 isoform P10636-8): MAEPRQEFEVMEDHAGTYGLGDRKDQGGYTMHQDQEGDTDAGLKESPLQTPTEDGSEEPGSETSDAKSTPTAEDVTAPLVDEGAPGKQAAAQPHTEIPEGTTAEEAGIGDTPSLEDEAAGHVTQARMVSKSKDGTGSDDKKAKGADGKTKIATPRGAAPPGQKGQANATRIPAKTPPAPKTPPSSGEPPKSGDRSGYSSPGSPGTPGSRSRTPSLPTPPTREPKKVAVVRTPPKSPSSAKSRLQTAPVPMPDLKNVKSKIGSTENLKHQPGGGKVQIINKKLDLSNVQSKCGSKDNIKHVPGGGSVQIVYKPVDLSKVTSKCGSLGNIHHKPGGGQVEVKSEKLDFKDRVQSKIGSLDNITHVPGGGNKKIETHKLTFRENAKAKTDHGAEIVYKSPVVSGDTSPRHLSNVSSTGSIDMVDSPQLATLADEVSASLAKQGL
T1 sequence (P05067 672-713 limits assumed): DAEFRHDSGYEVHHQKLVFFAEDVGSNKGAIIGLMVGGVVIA

Structure (SMILES): CC[n+]1c(/C=C/c2ccc(-c3ccc(C(=O)OC)s3)s2)sc2ccccc21 [Example Compound 3a]
- Overlap between Fluorescence from tested compound and fluorescence from 4G8 observed [1]: no correlation and no
- Fluorescence from tested compound observed [1]: yes
- Fluorescence from 4G8 observed [1]: yes
- Deposits labelled [2]: tau aggregates (arrows) displayed Example Compound 3a fluorescence
- Fluorescence from Example 3a observed ([2]; FIG. 7A-C): yes
- Overlap between Fluorescence from Example 3a and fluorescence from q-FTAA-CN ([2]; FIG. 7A-C): no
- Labelling of immune-positive NFTs and dystrophic neurites [3]: labelled both immune-positive NFTs and dystrophic neurites
- Fluorescence from tested compound observed [3]: yes
- Overlap between Fluorescence from tested compound and fluorescence from AT-100 observed [3]: yes
- Fluorescence from AT-100 observed [3]: yes

Structure (SMILES): CC[n+]1c(/C=C/c2ccc(-c3ccc4nsnc4c3)s2)sc2ccccc21 [Example Compound 3n]
- Overlap between Fluorescence from tested compound and fluorescence from 4G8 observed [1]: no correlation and no
- Fluorescence from tested compound observed [1]: yes
- Fluorescence from 4G8 observed [1]: yes
- Labelling of immune-positive NFTs and dystrophic neurites [3]: labelled both immune-positive NFTs and dystrophic neurites
- Fluorescence from tested compound observed [3]: yes
- Overlap between Fluorescence from tested compound and fluorescence from AT-100 observed [3]: yes
- Fluorescence from AT-100 observed [3]: yes

Structure (SMILES): CC[n+]1c(/C=C/c2ccc(-c3cccc4nsnc34)s2)sc2ccccc21.[I-] [Example Compound 3o]
- Overlap between Fluorescence from tested compound and fluorescence from 4G8 observed [1]: no correlation and no
- Fluorescence from tested compound observed [1]: yes
- Fluorescence from 4G8 observed [1]: yes
- Labelling of immune-positive NFTs and dystrophic neurites [3]: labelled both immune-positive NFTs and dystrophic neurites
- Fluorescence from tested compound observed [3]: yes
- Overlap between Fluorescence from tested compound and fluorescence from AT-100 observed [3]: yes
- Fluorescence from AT-100 observed [3]: yes

Structure (SMILES): CC[n+]1c(/C=C/c2ccc(-c3ccc(C(=O)OC)[se]3)s2)[se]c2ccc(OC)cc21.[I-] [Example Compound 3p]
- Overlap between Fluorescence from tested compound and fluorescence from 4G8 observed [1]: no correlation and no
- Fluorescence from tested compound observed [1]: yes
- Fluorescence from 4G8 observed [1]: yes
- Labelling of immune-positive NFTs and dystrophic neurites [3]: labelled both immune-positive NFTs and dystrophic neurites
- Fluorescence from tested compound observed [3]: yes
- Overlap between Fluorescence from tested compound and fluorescence from AT-100 observed [3]: yes
- Fluorescence from AT-100 observed [3]: yes

Structure (SMILES): CC[n+]1c(/C=C/c2ccc(-c3ccc[se]3)s2)[se]c2ccc(OC)cc21.[I-] [Example Compound 3q]
- Overlap between Fluorescence from tested compound and fluorescence from 4G8 observed [1]: no correlation and no
- Fluorescence from tested compound observed [1]: yes
- Fluorescence from 4G8 observed [1]: yes
- Labelling of immune-positive NFTs and dystrophic neurites [3]: labelled both immune-positive NFTs and dystrophic neurites
- Fluorescence from tested compound observed [3]: yes
- Overlap between Fluorescence from tested compound and fluorescence from AT-100 observed [3]: yes
- Fluorescence from AT-100 observed [3]: yes

Structure (SMILES): CC[n+]1c(/C=C/c2ccc(-c3ccc(C(=O)OC)[se]3)s2)sc2ccccc21.[I-] [Example Compound 3r]
- Overlap between Fluorescence from tested compound and fluorescence from 4G8 observed [1]: no correlation and no
- Fluorescence from tested compound observed [1]: yes
- Fluorescence from 4G8 observed [1]: yes
- Labelling of immune-positive NFTs and dystrophic neurites [3]: labelled both immune-positive NFTs and dystrophic neurites
- Fluorescence from tested compound observed [3]: yes
- Overlap between Fluorescence from tested compound and fluorescence from AT-100 observed [3]: yes
- Fluorescence from AT-100 observed [3]: yes

Structure (SMILES): CC[n+]1c(/C=C/c2ccc(-c3ccc4ncsc4c3)s2)sc2ccccc21.[I-] [Example Compound 3s]
- Overlap between Fluorescence from tested compound and fluorescence from 4G8 observed [1]: no correlation and no
- Fluorescence from tested compound observed [1]: yes
- Fluorescence from 4G8 observed [1]: yes
- Labelling of immune-positive NFTs and dystrophic neurites [3]: labelled both immune-positive NFTs and dystrophic neurites
- Fluorescence from tested compound observed [3]: yes
- Overlap between Fluorescence from tested compound and fluorescence from AT-100 observed [3]: yes
- Fluorescence from AT-100 observed [3]: yes

Structure (SMILES): CC[n+]1c(/C=C/c2ccc(-c3ccc(C#N)s3)s2)sc2ccccc21.[I-] [Example Compound 3t]
- Overlap between Fluorescence from tested compound and fluorescence from 4G8 observed [1]: no correlation and no
- Fluorescence from tested compound observed [1]: yes
- Fluorescence from 4G8 observed [1]: yes
- Labelling of immune-positive NFTs and dystrophic neurites [3]: labelled both immune-positive NFTs and dystrophic neurites
- Fluorescence from tested compound observed [3]: yes
- Overlap between Fluorescence from tested compound and fluorescence from AT-100 observed [3]: yes
- Fluorescence from AT-100 observed [3]: yes

Structure (SMILES): CC[n+]1c(/C=C/c2ccc(-c3ccc(C(=O)OC)s3)s2)sc2ccc(O)cc21.[I-] [Example Compound 3u]
- Overlap between Fluorescence from tested compound and fluorescence from 4G8 observed [1]: no correlation and no
- Fluorescence from tested compound observed [1]: yes
- Fluorescence from 4G8 observed [1]: yes
- Labelling of immune-positive NFTs and dystrophic neurites [3]: labelled both immune-positive NFTs and dystrophic neurites
- Fluorescence from tested compound observed [3]: yes
- Overlap between Fluorescence from tested compound and fluorescence from AT-100 observed [3]: yes
- Fluorescence from AT-100 observed [3]: yes
